In patent publication US20130131111A1, “NMN MODULATORS FOR THE TREATMENT OF NEURODEGENERATIVE DISORDERS” (Babraham Institute, priority 2010, published 2013):

What was measured:
Format in all cases: cell-based, mouse
[1] = tested on: intracellular NAD(P)^+ levels in SCG cultures; assay: NAD(P)+ levels in SCG explant cultures; details: 100 nM FK866 for 8 h or 24 h; FIG. 2
Protocol: (§1) Explants were placed into L15 (Leibovitz) medium (Invitrogen), cleaned from other tissues, cut in half and six half explants were placed in the centre of 3.5 cm tissue culture dishes pre-coated with poly-L-lysine (20 μg/ml for 2 h; Sigma) and laminin (20 μg/ml for 2 h; Sigma). Explants were cultured in DMEM containing 4500 mg/L glucose and 110 mg/L sodium pyruvate (Sigma), 2 mM glutamine, 1% penicillin/streptomycin, 1/50 B27 serum supplement and 100 ng/ml 7S NGF (all from Invitrogen) and 4 μM aphidicolin (Sigma) to block proliferation of non-neuronal cells. Neurites were allowed to extend for 7 days in all cultures before any treatment. After this time, neurites were separated from their cell bodies using a scalpel. […] Bright-field images were captured on an Olympus IX81 inverted microscope using a Soft Imaging Systems F-View camera linked to a PC running the Analysis software. Images of the same field of neurites were captured just after or at regular intervals up to 48-72 hours after cut injuries.
At this time, the explants were collected in 100 μl H2O for NAD(P)^+ determination as described in Billington et al. (2008) J Biol Chem 283(10), 6367-6374.
The results of this analysis can be seen in FIG. 2. […] Therefore, the reduced intracellular levels of NMN^+ result in a reduction in the turnover of NMN^+ to NAD^+ by isoforms of Nmnat.

[2] = tested on: cut neurites of SCG neurons; assay: Cut neurites of SCG explant cultures (Wallerian degeneration)
Protocol: as §1, with “injuries. […] In this experiment, SCG neurons were cultured for 7 days as described in the methodology, then the neurites were separated from the cell bodies by a scalpel, and the distal part of the neurites with respect to the cut was imaged immediately after the cut or 24 hours after the cut.” for “injuries.”

neurites of SCG neurons = assay: Vincristine-treated neurites of SCG explant cultures
Protocol: as §1
This experiment was performed in an analogous manner to that described in Examples 2 and 3, however the neurites, instead of being separated by the cell body with a cut, were treated with the neurotoxic chemotherapy drug vincristine. […] The distal part of the neurites was imaged immediately and at 24, 48 and 72 hours after adding the drugs.

`O=C(/C=C/c1cccnc1)NCCCCC1CCN(C(=O)c2ccccc2)CC1` [FK866, N-[4-(1-benzoyl-4-piperidinyl)butyl]-3-(3-pyridinyl)-2E-propenamide] was tested, and the “effect on NAD^+ levels” value [1] was “depletion of NAD^+”, the neurite survival increase ([2]; FK866 100 nM, cut neurites, estimated) was “increased by four fold” and the “effect on injured (cut) neurites” value ([2]; FK866 100 nM, imaged 24 hours after cut, FIG. 3) was “preserving injured neurites in primary culture even if added shortly after cutting”. The “neuroprotective effect on cell bodies” value ([2]; data not shown) was “does not extend to cell bodies” and the “effect on vincristine-induced neurite degeneration” value (neurites of SCG neurons; 0.02 μM vincristine plus 100 nM FK866, up to 72 hours, FIG. 5) was “protection”.

In the case of `NC(=O)c1ccc[n+]([C@@H]2O[C@H](COP(=O)([O-])O)[C@@H](O)[C@H]2O)c1` [NMN, nicotinamide mononucleotide], the “effect of adding NMN^+ with FK866 on cut neurites” value ([2]; NMN^+ in combination with FK866, FIG. 4) is reported as “reverts the protective effect of FK866” and the “effect of adding NMN with FK866 on vincristine-treated neurites” value (neurites of SCG neurons; 0.02 μM vincristine plus 100 nM FK866 and 1 mM NMN, FIG. 5) is reported as “protective effect is reverted”.

For `CC[C@]1(O)C[C@H]2CN(CCc3c([nH]c4ccccc34)[C@@](C(=O)OC)(c3cc4c(cc3OC)N(C=O)[C@H]3[C@@](O)(C(=O)OC)[C@H](OC(C)=O)[C@]5(CC)C=CCN6CC[C@]43[C@@H]65)C2)C1` [Vincristine, vincristine], the “toxic effect on neurites” value (neurites of SCG neurons; 0.02 μM vincristine alone) was “progressive distal-to-proximal degeneration of neurites”.
